Experimental data: the NIST ThermoML archive (doi:10.1016/j.jct.2019.02.011)
Numbers after ± are expanded uncertainties.

Tests used:
[1] = Liquid, Vibrating tube method
[2] = xn = mol fraction of the nth substance listed; conditions: Liquid, Vibrating tube method, x2 = 0

COC(=O)OC [dimethyl carbonate]
mass density [kg/m3], [1]
Conditions | 100 kPa | 5000 kPa | 10000 kPa | 15000 kPa | 20000 kPa | 25000 kPa | 30000 kPa | 35000 kPa | 40000 kPa
288.15 K | 1076.83 ± 0.57 | 1081.15 ± 0.57 | 1085.32 ± 0.58 | 1089.52 ± 0.6 | 1093.35 ± 0.61 | 1096.99 ± 0.62 | 1100.63 ± 0.63 | 1104.08 ± 0.65 | 1107.4 ± 0.67
293.15 K | 1070.06 ± 0.56 | 1074.62 ± 0.57 | 1078.93 ± 0.58 | 1083.01 ± 0.59 | 1087.08 ± 0.6 | 1091.03 ± 0.61 | 1094.75 ± 0.63 | 1098.34 ± 0.64 | 1101.84 ± 0.66
298.15 K | 1063.45 ± 0.56 | 1068 ± 0.57 | 1072.51 ± 0.58 | 1076.72 ± 0.59 | 1080.9 ± 0.6 | 1084.89 ± 0.61 | 1088.82 ± 0.62 | 1092.44 ± 0.64 | 1096.04 ± 0.65
303.15 K | 1056.61 ± 0.56 | 1061.47 ± 0.57 | 1066.02 ± 0.57 | 1070.49 ± 0.58 | 1074.79 ± 0.59 | 1078.99 ± 0.6 | 1082.9 ± 0.62 | 1086.6 ± 0.63 | 1090.4 ± 0.64
308.15 K | 1049.91 ± 0.56 | 1054.84 ± 0.56 | 1059.69 ± 0.57 | 1064.3 ± 0.58 | 1068.73 ± 0.59 | 1073 ± 0.6 | 1077.1 ± 0.61 | 1080.78 ± 0.62 | 1084.38 ± 0.63

CCO [ethanol]
mass density [kg/m3], [1]
Conditions | 100 kPa | 5000 kPa | 10000 kPa | 15000 kPa | 20000 kPa | 25000 kPa | 30000 kPa | 35000 kPa | 40000 kPa
288.15 K | 794.39 ± 0.52 | 798.18 ± 0.53 | 802.2 ± 0.54 | 806.02 ± 0.55 | 809.69 ± 0.56 | 812.95 ± 0.58 | 816.23 ± 0.59 | 819.12 ± 0.61 | 822.29 ± 0.62
293.15 K | 789.87 ± 0.52 | 793.83 ± 0.53 | 797.88 ± 0.54 | 801.84 ± 0.55 | 805.45 ± 0.57 | 809.12 ± 0.58 | 812.52 ± 0.6 | 815.8 ± 0.61 | 818.81 ± 0.63
298.15 K | 785.59 ± 0.52 | 789.72 ± 0.53 | 793.76 ± 0.54 | 797.75 ± 0.55 | 801.4 ± 0.57 | 805.07 ± 0.58 | 808.47 ± 0.6 | 811.58 ± 0.61 | 815.03 ± 0.63
303.15 K | 781.19 ± 0.52 | 785.47 ± 0.53 | 789.66 ± 0.54 | 793.71 ± 0.55 | 797.54 ± 0.57 | 801.26 ± 0.58 | 804.81 ± 0.6 | 808.29 ± 0.62 | 811.43 ± 0.64
308.15 K | 776.6 ± 0.52 | 780.98 ± 0.53 | 785.42 ± 0.54 | 789.62 ± 0.56 | 793.63 ± 0.57 | 797.42 ± 0.59 | 801.06 ± 0.6 | 804.6 ± 0.62 | 808.06 ± 0.64

CCO [ethanol] + COC(=O)OC
mass density [kg/m3], [2]
Conditions | 100 kPa | 5000 kPa | 10000 kPa | 15000 kPa | 20000 kPa | 25000 kPa | 30000 kPa | 35000 kPa | 40000 kPa
288.15 K | 794.39 ± 0.52 | 798.18 ± 0.53 | 802.2 ± 0.54 | 806.02 ± 0.55 | 809.69 ± 0.56 | 812.95 ± 0.58 | 816.23 ± 0.59 | 819.12 ± 0.61 | 822.29 ± 0.62
293.15 K | 789.87 ± 0.52 | 793.83 ± 0.53 | 797.88 ± 0.54 | 801.84 ± 0.55 | 805.45 ± 0.57 | 809.12 ± 0.58 | 812.52 ± 0.6 | 815.8 ± 0.61 | 818.81 ± 0.63
298.15 K | 785.59 ± 0.52 | 789.72 ± 0.53 | 793.76 ± 0.54 | 797.75 ± 0.55 | 801.4 ± 0.57 | 805.07 ± 0.58 | 808.47 ± 0.6 | 811.58 ± 0.61 | 815.03 ± 0.63
303.15 K | 781.19 ± 0.52 | 785.47 ± 0.53 | 789.66 ± 0.54 | 793.71 ± 0.55 | 797.54 ± 0.57 | 801.26 ± 0.58 | 804.81 ± 0.6 | 808.29 ± 0.62 | 811.43 ± 0.64
308.15 K | 776.6 ± 0.52 | 780.98 ± 0.53 | 785.42 ± 0.54 | 789.62 ± 0.56 | 793.63 ± 0.57 | 797.42 ± 0.59 | 801.06 ± 0.6 | 804.6 ± 0.62 | 808.06 ± 0.64

CO [methanol]
mass density [kg/m3], [1]
Conditions | 100 kPa | 5000 kPa | 10000 kPa | 15000 kPa | 20000 kPa | 25000 kPa | 30000 kPa | 35000 kPa | 40000 kPa
288.15 K | 796.19 ± 0.51 | 800.57 ± 0.52 | 804.93 ± 0.53 | 808.85 ± 0.54 | 812.92 ± 0.55 | 816.56 ± 0.56 | 820.09 ± 0.58 | 823.62 ± 0.59 | 827.04 ± 0.6
293.15 K | 791.18 ± 0.51 | 795.97 ± 0.52 | 800.47 ± 0.53 | 804.52 ± 0.54 | 808.43 ± 0.55 | 812.34 ± 0.56 | 815.93 ± 0.58 | 819.32 ± 0.59 | 822.48 ± 0.61
298.15 K | 786.76 ± 0.51 | 791.52 ± 0.52 | 795.8 ± 0.53 | 800.13 ± 0.54 | 804.18 ± 0.55 | 808.04 ± 0.57 | 811.69 ± 0.58 | 815.2 ± 0.6 | 818.33 ± 0.61
303.15 K | 782.07 ± 0.51 | 786.79 ± 0.52 | 791.31 ± 0.53 | 795.85 ± 0.54 | 800.16 ± 0.56 | 804.08 ± 0.57 | 807.78 ± 0.58 | 811.31 ± 0.6 | 814.7 ± 0.61
308.15 K | 777.09 ± 0.51 | 781.85 ± 0.52 | 786.63 ± 0.53 | 791.23 ± 0.54 | 795.58 ± 0.56 | 799.85 ± 0.57 | 803.73 ± 0.59 | 807.42 ± 0.6 | 811.08 ± 0.62

CO [methanol] + COC(=O)OC
mass density [kg/m3], [2]
Conditions | 100 kPa | 5000 kPa | 10000 kPa | 15000 kPa | 20000 kPa | 25000 kPa | 30000 kPa | 35000 kPa | 40000 kPa
288.15 K | 796.19 ± 0.51 | 800.57 ± 0.52 | 804.93 ± 0.53 | 808.85 ± 0.54 | 812.92 ± 0.55 | 816.56 ± 0.56 | 820.09 ± 0.58 | 823.62 ± 0.59 | 827.04 ± 0.6
293.15 K | 791.18 ± 0.51 | 795.97 ± 0.52 | 800.47 ± 0.53 | 804.52 ± 0.54 | 808.43 ± 0.55 | 812.34 ± 0.56 | 815.93 ± 0.58 | 819.32 ± 0.59 | 822.48 ± 0.61
298.15 K | 786.76 ± 0.51 | 791.52 ± 0.52 | 795.8 ± 0.53 | 800.13 ± 0.54 | 804.18 ± 0.55 | 808.04 ± 0.57 | 811.69 ± 0.58 | 815.2 ± 0.6 | 818.33 ± 0.61
303.15 K | 782.07 ± 0.51 | 786.79 ± 0.52 | 791.31 ± 0.53 | 795.85 ± 0.54 | 800.16 ± 0.56 | 804.08 ± 0.57 | 807.78 ± 0.58 | 811.31 ± 0.6 | 814.7 ± 0.61
308.15 K | 777.09 ± 0.51 | 781.85 ± 0.52 | 786.63 ± 0.53 | 791.23 ± 0.54 | 795.58 ± 0.56 | 799.85 ± 0.57 | 803.73 ± 0.59 | 807.42 ± 0.6 | 811.08 ± 0.62

CCCO [propan-1-ol]
mass density [kg/m3], [1]
Conditions | 100 kPa | 5000 kPa | 10000 kPa | 15000 kPa | 20000 kPa | 25000 kPa | 30000 kPa | 35000 kPa | 40000 kPa
288.15 K | 807.62 ± 0.52 | 811.32 ± 0.52 | 814.7 ± 0.53 | 817.95 ± 0.55 | 821.27 ± 0.56 | 824.24 ± 0.57 | 827.24 ± 0.59 | 830.04 ± 0.6 | 832.73 ± 0.61
293.15 K | 803.57 ± 0.52 | 807.24 ± 0.53 | 810.8 ± 0.54 | 814.22 ± 0.55 | 817.46 ± 0.56 | 820.74 ± 0.57 | 823.7 ± 0.59 | 826.5 ± 0.6 | 829.09 ± 0.62
298.15 K | 799.61 ± 0.52 | 803.49 ± 0.53 | 807.15 ± 0.54 | 810.5 ± 0.55 | 813.78 ± 0.56 | 816.92 ± 0.58 | 820.04 ± 0.59 | 822.87 ± 0.61 | 825.81 ± 0.62
303.15 K | 795.62 ± 0.52 | 799.57 ± 0.53 | 803.13 ± 0.54 | 806.69 ± 0.55 | 810.14 ± 0.56 | 813.48 ± 0.58 | 816.64 ± 0.59 | 819.75 ± 0.61 | 822.6 ± 0.62
308.15 K | 791.31 ± 0.52 | 795.4 ± 0.53 | 799.21 ± 0.54 | 802.79 ± 0.55 | 806.37 ± 0.57 | 809.72 ± 0.58 | 813.03 ± 0.6 | 816.12 ± 0.61 | 819.06 ± 0.63

CCCO [propan-1-ol] + COC(=O)OC
mass density [kg/m3], [2]
Conditions | 100 kPa | 5000 kPa | 10000 kPa | 15000 kPa | 20000 kPa | 25000 kPa | 30000 kPa | 35000 kPa | 40000 kPa
288.15 K | 807.62 ± 0.52 | 811.32 ± 0.52 | 814.7 ± 0.53 | 817.95 ± 0.55 | 821.27 ± 0.56 | 824.24 ± 0.57 | 827.24 ± 0.59 | 830.04 ± 0.6 | 832.73 ± 0.61
293.15 K | 803.57 ± 0.52 | 807.24 ± 0.53 | 810.8 ± 0.54 | 814.22 ± 0.55 | 817.46 ± 0.56 | 820.74 ± 0.57 | 823.7 ± 0.59 | 826.5 ± 0.6 | 829.09 ± 0.62
298.15 K | 799.61 ± 0.52 | 803.49 ± 0.53 | 807.15 ± 0.54 | 810.5 ± 0.55 | 813.78 ± 0.56 | 816.92 ± 0.58 | 820.04 ± 0.59 | 822.87 ± 0.61 | 825.81 ± 0.62
303.15 K | 795.62 ± 0.52 | 799.57 ± 0.53 | 803.13 ± 0.54 | 806.69 ± 0.55 | 810.14 ± 0.56 | 813.48 ± 0.58 | 816.64 ± 0.59 | 819.75 ± 0.61 | 822.6 ± 0.62
308.15 K | 791.31 ± 0.52 | 795.4 ± 0.53 | 799.21 ± 0.54 | 802.79 ± 0.55 | 806.37 ± 0.57 | 809.72 ± 0.58 | 813.03 ± 0.6 | 816.12 ± 0.61 | 819.06 ± 0.63
